Reference: patent publication US20250230193A1, “CYCLIC COMPOUND HAVING SELECTIVE KRAS INHIBITORY EFFECT ON HRAS AND NRAS” (CHUGAI SEIYAKU KABUSHIKI KAISHA, priority 2022, published 2025)
Where a SMILES comes first, the peptide text is derived from it. Bridges are numbered along the chain shown (N, C = ends). [ ]: non-standard residue; d: D form. The star is where a group is joined. hPhe(3-Cl-4-CF3) = N[C@@H](CCc1ccc(C(F)(F)F)c(Cl)c1)C(=O)O; NPrPhe(4-CF3) = CCCN[C@@H](Cc1ccc(C(F)(F)F)cc1)C(=O)O; NMePhe(4-Me) = CN[C@@H](Cc1ccc(C)cc1)C(=O)O; NMeGly(cPent) = CN[C@H](C(=O)O)C1CCCC1; Pro(4,4-F2) = O=C(O)[C@@H]1CC(F)(F)CN1; cisHyp = O=C(O)[C@@H]1C[C@H](O)CN1; NMeD = CN[C@@H](CC(=O)O)C(=O)O; NMeL = CN[C@@H](CC(C)C)C(=O)O; Morpholide = C1CN(*)CCO1; Ac5c = NC1(C(=O)O)CCCC1; Ac4c = NC1(C(=O)O)CCC1; NEtG = CCNCC(=O)O; Sar = CNCC(=O)O

What was measured:
[1] = target: GDP-bound NRAS wild-type protein (Homo sapiens, UniProt P01111); assay: Binding to NRAS by surface plasmon resonance (SPR), Single Cycle Kinetics; details: KD ratio NRAS/KRAS
[2] = target: GDP-bound HRAS wild-type protein (Homo sapiens, UniProt P01112); assay: Binding to HRAS by surface plasmon resonance (SPR), Single Cycle Kinetics; details: KD ratio HRAS/KRAS
[3] = SPR, GDP-bound wild-type proteins

GDP-bound NRAS wild-type protein, sequence (P01111 whole entry): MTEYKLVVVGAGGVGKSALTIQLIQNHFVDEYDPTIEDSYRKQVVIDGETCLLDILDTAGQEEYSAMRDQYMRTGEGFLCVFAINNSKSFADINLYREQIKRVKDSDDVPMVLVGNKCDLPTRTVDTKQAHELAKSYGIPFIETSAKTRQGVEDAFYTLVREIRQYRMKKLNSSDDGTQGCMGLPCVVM
GDP-bound HRAS wild-type protein, sequence (P01112 whole entry): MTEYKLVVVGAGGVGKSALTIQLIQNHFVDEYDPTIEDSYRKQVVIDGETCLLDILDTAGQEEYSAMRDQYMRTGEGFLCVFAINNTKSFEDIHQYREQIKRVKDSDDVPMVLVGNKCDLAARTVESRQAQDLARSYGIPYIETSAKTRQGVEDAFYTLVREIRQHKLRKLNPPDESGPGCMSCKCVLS

SMILES | NRAS/KRAS (ratio of KD for GDP-bound NRAS wild-type to KD for KRAS) ([1]; SPR) | HRAS/KRAS (ratio of KD for GDP-bound HRAS wild-type to KD for KRAS) ([2]; SPR) | further results
CCOC[C@H]1C(=O)N[C@@H]([C@@H](C)CC)C(=O)N(C)CC(=O)N(C)[C@H]2C/C=C\CCN(C2=O)[C@@H](Cc2ccc(C(F)(F)F)cc2)C(=O)N(C)CC(=O)N[C@@H](CCc2ccc(C(F)(F)F)c(OC)c2)C(=O)N2C[C@H](OCC)C[C@H]2C(=O)NC2(CC(C)(C)C2)C(=O)N(C)[C@@H](CC(C)(C)C)C(=O)N(C)[C@H](C(=O)N(C)C)CC(=O)N1C [PP2736] |  |  | NRAS/KRAS (ratio of KD value with respect to GDP-bound NRAS wild-type protein to KD value with respect to KRAS) ([1]; class symbols): A (a compound having 10 or more and less than 20 is denoted as A); HRAS/KRAS (ratio of KD value with respect to GDP-bound HRAS wild-type protein to KD value with respect to KRAS) ([2]; class symbols): A (a compound having 10 or more and less than 20 is denoted as A)
CC[C@H](C)[C@@H]1NC(=O)[C@H](CC(C)C)N(C)C(=O)C[C@@H](C(=O)N2CCOCC2)N(C)C(=O)[C@H](C2CCCC2)N(C)C(=O)C2(CCCC2)NC(=O)[C@@H]2CCCN2C(=O)[C@H](CCc2ccc(C(F)(F)F)c(Cl)c2)NC(=O)CN(C)C(=O)[C@H](Cc2ccc(C)cc2)N(C)C(=O)CN(C)C(=O)CN(C)C1=O [PP0018] ([NMeL]I[Sar][Sar][NMePhe(4-Me)][Sar][hPhe(3-Cl-4-CF3)]P[Ac5c][NMeGly(cPent)][NMeD]-Morpholide; lactam N-11) | C (A compound having a KD ratio of 0.1 or more and less than 3 is denoted as C) | C (A compound having a KD ratio of 0.1 or more and less than 3 is denoted as C) | 
CCCN1C(=O)CN(C)C(=O)CN(CC)C(=O)[C@H]([C@@H](C)CC)NC(=O)[C@H](CC(C)C)N(C)C(=O)C[C@@H](C(=O)N2CCOCC2)NC(=O)[C@H](C2CCCC2)N(C)C(=O)C2(CCC2)NC(=O)[C@@H]2CC(F)(F)CN2C(=O)[C@H](CCc2ccc(C(F)(F)F)c(Cl)c2)NC(=O)CN(C)C(=O)[C@@H]1Cc1ccc(C(F)(F)F)cc1 [PP0334] ([NMeL]I[NEtG][Sar][NPrPhe(4-CF3)][Sar][hPhe(3-Cl-4-CF3)][Pro(4,4-F2)][Ac4c][NMeGly(cPent)]D-Morpholide; lactam N-11) | B (a compound having 3 or more and less than 10 is denoted as B) | C (A compound having a KD ratio of 0.1 or more and less than 3 is denoted as C) | 
CC[C@H](C)[C@@H]1NC(=O)[C@@H]2CCCCCCc3ccc(cc3)C[C@@H](C(=O)N(C)CC(=O)N[C@@H](CCc3ccc(C(F)(F)F)c(OC)c3)C(=O)N3C[C@H](OC(C)C)C[C@H]3C(=O)NC3(CC(C)(C)C3)C(=O)N(C)[C@@H](C3CCCC3)C(=O)N(C)[C@H](C(=O)N(C)C)CC(=O)N2C)N2CC/C=C\C[C@@H](C2=O)N(C)C(=O)CN(C)C1=O [PP3067] |  |  | NRAS/KRAS (ratio of KD value with respect to GDP-bound NRAS wild-type protein to KD value with respect to KRAS) [1, 3]: A (a compound having 10 or more and less than 20 is denoted as A); HRAS/KRAS (ratio of KD value with respect to GDP-bound HRAS wild-type protein to KD value with respect to KRAS) [2, 3]: B (a compound having 3 or more and less than 10 is denoted as B)
CCCN1C(=O)CN(C)C(=O)CNC(=O)[C@H]([C@@H](C)CC)NC(=O)[C@H](CC(C)C)N(C)C(=O)C[C@@H](C(=O)N2CCOCC2)N(C)C(=O)[C@H](C2CCCC2)N(C)C(=O)C2(CCCC2)NC(=O)[C@@H]2CCCN2C(=O)[C@H](CCc2ccc(C(F)(F)F)c(Cl)c2)NC(=O)CN(C)C(=O)[C@@H]1Cc1ccc(C(F)(F)F)cc1 [PP0155] ([NMeL]IG[Sar][NPrPhe(4-CF3)][Sar][hPhe(3-Cl-4-CF3)]P[Ac5c][NMeGly(cPent)][NMeD]-Morpholide; lactam N-11) | B (a compound having 3 or more and less than 10 is denoted as B) | C (A compound having a KD ratio of 0.1 or more and less than 3 is denoted as C) | 
CCCN1C(=O)CN(C)C(=O)CN(C)C(=O)[C@H]([C@@H](C)CC)NC(=O)[C@H](CC(C)C)N(C)C(=O)C[C@@H](C(=O)N2CCOCC2)N(C)C(=O)[C@H](C2CCCC2)N(C)C(=O)C2(CCCC2)NC(=O)[C@@H]2C[C@H](O)CN2C(=O)[C@H](CCc2ccc(C(F)(F)F)c(Cl)c2)NC(=O)CN(C)C(=O)[C@@H]1Cc1ccc(C(F)(F)F)cc1 [PP0240] ([NMeL]I[Sar][Sar][NPrPhe(4-CF3)][Sar][hPhe(3-Cl-4-CF3)][cisHyp][Ac5c][NMeGly(cPent)][NMeD]-Morpholide; lactam N-11) | B (a compound having 3 or more and less than 10 is denoted as B) | C (A compound having a KD ratio of 0.1 or more and less than 3 is denoted as C) | 
CCC[C@H]1C(=O)N[C@@H]([C@@H](C)CC)C(=O)N(C)CC(=O)N(C)[C@H]2C/C=C\CCN(C2=O)[C@@H](Cc2ccc(C)cc2)C(=O)N(C)CC(=O)N[C@@H](CCc2cc(F)c(C(F)(F)F)c(F)c2)C(=O)N2C[C@H](OCC)C[C@H]2C(=O)NC2(CC(C)(C)C2)C(=O)N(C)[C@@H](CC(C)(C)C)C(=O)N(C)[C@H](C(=O)N(C)C)CC(=O)N1C [PP2706] |  |  | NRAS/KRAS (ratio of KD value with respect to GDP-bound NRAS wild-type protein to KD value with respect to KRAS) ([1]; class symbols): A (a compound having 10 or more and less than 20 is denoted as A); HRAS/KRAS (ratio of KD value with respect to GDP-bound HRAS wild-type protein to KD value with respect to KRAS) ([2]; class symbols): B (a compound having 3 or more and less than 10 is denoted as B)
